Measurements: PubChem BioAssay AID1963422 (Molecular Pharmacology Branch, DTP, NCI, 2024)

System: 463943-066-T-J2-PDC complex spheroid growth
Assay: Anticancer human tumor 463943-066-T-J2-PDC patient-derived colon adenocarcinoma cell line growth inhibition [Asc]
Conditions: for IC50: curve of first compound; for viability, T/C: stronger effect = lower value
Method: Multicellular complex tumor spheroid response to apoptosis pathway targeting inhibitors Alrizomadlin, Pelcitoclax, and Dasminapant in combination with a variety of drugs and investigational agents in selected tumor cell lines
The MDM2 inhibitor alrizomadlin, the Bcl-2/Bcl-xL inhibitor pelcitoclax, and the IAPs inhibitor dasminapant were evaluated both individually and in combination with standard of care and investigational anticancer small molecules within a complex spheroid model of solid tumors. . Complex spheroids include a stromal component modeled by human endothelial cells (HUVEC) and fibroblasts modeled by human mesenchymal stem cells (MSCs). The concentration ranges selected for each drug and investigational agent were based upon clinically achievable concentrations if the clinical Cmax of the agent was known.
Compounds. The drugs and investigational agents: alrizomadlin (APG-115; NSC831270), pelcitoclax (APG-1252; NSC835773), dasminapant (APG-1387;NSC834197), TAK-243 (NSC785004), copanlisib (NSC809693), olaparib (NSC753686), talazoparib (NSC767125), cobimetinib (NSC 768068), eltanexor (KPT-8602, NSC 794443), abemaciclib (NSC 768073), sotorasib (NSC818433), adagrasib (NSC 831453), MRTX-1133 (NSC 836407), Iadademestat (ORY1001, NSC 806812), and RMC-4630 (NSC839698), were obtained from the NCI Developmental Therapeutics Program Chemical Repository. The FDA-approved anticancer drug set is available from the Developmental Therapeutics Program at https://dtp.cancer.gov/organization/dscb/obtaining/available plates.htm. […] The stock solutions were prepared in dimethyl sulfoxide (DMSO, Sigma-Aldrich, St. Louis, MO, cat. D2650) at 800-fold the tested concentration and stored at -70 degrees C prior to their use. All drugs and investigational agents were tested over a range starting from a high concentration at or near the clinical Cmax and decreasing in half-log increments. If the clinical Cmax for an agent had not been determined, the highest concentration tested was 10 microM.
The patient-derived cancer (PDC) cell lines include five colon adenocarcinomas: 186277-243-T-J2-PDC, 616215-338-R-J1-PDC, 439559-082-T-J2-PDC, 463943-066-T-J2-PDC, and 519858-162-T-J1-PDC; three pancreatic carcinomas: 323965-272-R-J2-PDC, 521955-158-R6-J3-PDC, and 521955-158-R2-J5-PDC; two uterine sarcomas: 327498-152-R-J2-PDC and 993429-296-R-J1-PDC; two rhabdomyosarcomas: 755483-174-R-J1-PDC and 772245-204-R-J1-PDC; two soft tissue sarcomas: 126254-015-R-J1-PDC and 494315-158-R-J1-PDC; two malignant fibrous histiocytomas: 317291-083-R-J1-PDC and 596521-263-R-J1-PDC; two breast carcinomas: 171881-019-R-J1-PDC and 885512-296-R-J2-PDC; and one ovarian carcinoma: 6556581-035-R-J-PDC were obtained from the NCI PDMR, (https://pdmr.cancer.gov). The established cell lines HSSY-2 synovial sarcoma (RRID:CVCL 8719), SYO-1 synovial sarcoma (RRID:CVCL_7146), MPNST malignant peripheral neural sheath tumor were obtained from the Sloan Kettering Institute. The following established cell lines were purchased from the American Type Culture Collection (ATCC, Manassas, VA), Sor the received from the NCI repository:, PANC-1 pancreatic carcinoma (CRL-1469, RRID:CVCL_0480), OVCAR-5 ovarian carcinoma (RRID:CVCL_1628), OVCAR-8 ovarian carcinoma (RRID:CVCL_1629), , MCF-7 breast carcinoma (CRL-12584, RRID:CVCL_0031), MDA-MB-231 breast carcinoma (CRL-12532, RRID:CVCL_0062), NCI-H1876 small cell lung carcinoma (CRL-5902, RRID:CVCL_1503), NCI-H510A small cell lung carcinoma (HTB-184, RRID:CVCL_1565), NCI-H1417 (CRL-5869, RRID:CVCL_1469), and NCI-H196 small cell lung carcinoma (CRL-5823, RRID:CVCL_1509). Dr. Peter Houghton (Greehey Children's Cancer Research Institute, University of Texas Health Science Center, San Antonio, TX) provided Rh-18 rhabdomyosarcoma (RRID:CVCL_1659). Pooled donor human umbilical vein endothelial cells (HUVEC, Lonza, cat. CC-2519) and human mesenchymal stem cells (hMSC, Lonza, cat. PT-2501) were purchased from Lonza (Walkersville, MD).
Cell Culture. […]

[1] = second compound 0.0316 µM, first compound 0.0316 µM
[2] = second compound 0.0316 µM, first compound 0.1 µM
[3] = second compound 0.0316 µM, first compound 0.316 µM
[4] = second compound 0.0316 µM, first compound 1 µM
[5] = second compound 0.1 µM, first compound 0.0316 µM
[6] = second compound 0.1 µM, first compound 0.1 µM
[7] = second compound 0.1 µM, first compound 0.316 µM
[8] = second compound 0.1 µM, first compound 1 µM
[9] = second compound 0.316 µM, first compound 0.0316 µM
[10] = second compound 0.316 µM, first compound 0.1 µM
[11] = second compound 0.316 µM, first compound 0.316 µM
[12] = second compound 0.316 µM, first compound 1 µM
[13] = second compound 1 µM, first compound 0.0316 µM
[14] = second compound 1 µM, first compound 0.1 µM
[15] = second compound 1 µM, first compound 0.316 µM
[16] = second compound 1 µM, first compound 1 µM
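Further: compound exposure lasted 7 days.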
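Wherever viability, T/C is given: 100% = DMSO vehicle control wells.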

In the case of `O=C(c1ccc(F)c(F)c1Nc1ccc(I)cc1F)N1CC(O)([C@@H]2CCCCN2)C1` + CNC(C)C(=O)NC1CN(S(=O)(=O)c2cccc(S(=O)(=O)N3CCC4CCC(C(=O)NC(c5ccccc5)c5ccccc5)N4C(=O)C(NC(=O)C(C)NC)C3)c2)CCC2CCC(C(=O)NC(c3ccccc3)c3ccccc3)N2C1=O, the IC50 (second compound 0.00316 µM) is reported as 0.125 µM, the IC50 (second compound 0.01 µM) is reported as 0.343 µM and the IC50 (second compound 0.0316 µM) is reported as 0.304 µM. The IC50 (second compound 0.1 µM) was 0.173 µM, the IC50 (second compound 0.316 µM) was 0.229 µM and the IC50 (second compound 1 µM) was 0.238 µM. For the same molecule, the viability, T/C (second compound 0.00316 µM, first compound 0.00316 µM) was 88.3%, the viability, T/C (second compound 0.00316 µM, first compound 0.01 µM) was 76.9% and the viability, T/C (second compound 0.00316 µM, first compound 0.0316 µM) was 59.4%. It also gave a viability, T/C (second compound 0.00316 µM, first compound 0.1 µM) of 58.4%, a viability, T/C (second compound 0.00316 µM, first compound 0.316 µM) of 40.4% and a viability, T/C (second compound 0.00316 µM, first compound 1 µM) of 20.8%. It also gave a viability, T/C (second compound 0.01 µM, first compound 0.00316 µM) of 94.6%, a viability, T/C (second compound 0.01 µM, first compound 0.01 µM) of 88.3% and a viability, T/C (second compound 0.01 µM, first compound 0.0316 µM) of 71.8%. For the same molecule, the viability, T/C (second compound 0.01 µM, first compound 0.1 µM) was 65.9%, the viability, T/C (second compound 0.01 µM, first compound 0.316 µM) was 51.3% and the viability, T/C (second compound 0.01 µM, first compound 1 µM) was 36.9%. The viability, T/C (second compound 0.0316 µM, first compound 0.00316 µM) was 102%, the viability, T/C (second compound 0.0316 µM, first compound 0.01 µM) was 81.6% and the viability, T/C [1] was 69%. The viability, T/C [2] was 67.2%, the viability, T/C [3] was 55% and the viability, T/C [4] was 32.6%. It also gave a viability, T/C (second compound 0.1 µM, first compound 0.00316 µM) of 85.1%, a viability, T/C (second compound 0.1 µM, first compound 0.01 µM) of 82.9% and a viability, T/C [5] of 64.4%. The viability, T/C [6] was 56%, the viability, T/C [7] was 46.8% and the viability, T/C [8] was 24.7%. For the same molecule, the viability, T/C (second compound 0.316 µM, first compound 0.00316 µM) was 91.1%, the viability, T/C (second compound 0.316 µM, first compound 0.01 µM) was 79.2% and the viability, T/C [9] was 66.5%. It also gave a viability, T/C [10] of 60%, a viability, T/C [11] of 49.9% and a viability, T/C [12] of 31.8%. The viability, T/C (second compound 1 µM, first compound 0.00316 µM) was 82%, the viability, T/C (second compound 1 µM, first compound 0.01 µM) was 68.1% and the viability, T/C [13] was 66.3%. It also gave a viability, T/C [14] of 61.4%, a viability, T/C [15] of 47.4% and a viability, T/C [16] of 33.4%.
`C=CC(=O)N1CCN(c2nc(=O)n(-c3c(C)ccnc3C(C)C)c3nc(-c4c(O)cccc4F)c(F)cc23)C(C)C1` (centres undefined) + Cc1c(S(C)(=O)=O)c(-c2cc(F)cc(N3CCN(c4ccc(NS(=O)(=O)c5ccc(NC(CCN6CCC(C(=O)OCCCP(=O)(O)O)CC6)CSc6ccccc6)c(S(=O)(=O)C(F)(F)F)c5)cc4)CC3)c2)c(-c2ccc(Cl)cc2)n1C(C)C gave an IC50 (second compound 0.0316 µM) greater than 10 µM, an IC50 (second compound 0.1 µM) greater than 10 µM and an IC50 (second compound 0.316 µM) greater than 10 µM. It also gave an IC50 (second compound 1 µM) greater than 10 µM, an IC50 (second compound 3.16 µM) greater than 10 µM and an IC50 (second compound 10 µM) of 7.14 µM. For the same molecule, the viability, T/C [1] was 84.9%, the viability, T/C [2] was 92.3% and the viability, T/C [3] was 91%. The viability, T/C [4] was 96.1%, the viability, T/C (second compound 0.0316 µM, first compound 3.16 µM) was 100% and the viability, T/C (second compound 0.0316 µM, first compound 10 µM) was 78.3%. It also gave a viability, T/C [5] of 95%, a viability, T/C [6] of 89.7% and a viability, T/C [7] of 91.4%. It also gave a viability, T/C [8] of 93.6%, a viability, T/C (second compound 0.1 µM, first compound 3.16 µM) of 91.9% and a viability, T/C (second compound 0.1 µM, first compound 10 µM) of 84.4%. The viability, T/C [9] was 83.8%, the viability, T/C [10] was 90% and the viability, T/C [11] was 85.3%. The viability, T/C [12] was 87.3%, the viability, T/C (second compound 0.316 µM, first compound 3.16 µM) was 86.8% and the viability, T/C (second compound 0.316 µM, first compound 10 µM) was 83%. For the same molecule, the viability, T/C [13] was 74%, the viability, T/C [14] was 75.6% and the viability, T/C [15] was 75.3%. It also gave a viability, T/C [16] of 77%, a viability, T/C (second compound 1 µM, first compound 3.16 µM) of 72% and a viability, T/C (second compound 1 µM, first compound 10 µM) of 64.4%. For the same molecule, the viability, T/C (second compound 3.16 µM, first compound 0.0316 µM) was 57.8%, the viability, T/C (second compound 3.16 µM, first compound 0.1 µM) was 59.4% and the viability, T/C (second compound 3.16 µM, first compound 0.316 µM) was 60.1%. For the same molecule, the viability, T/C (second compound 3.16 µM, first compound 1 µM) was 65%, the viability, T/C (second compound 3.16 µM, first compound 3.16 µM) was 66% and the viability, T/C (second compound 3.16 µM, first compound 10 µM) was 54.2%. For the same molecule, the viability, T/C (second compound 10 µM, first compound 0.0316 µM) was 51.5%, the viability, T/C (second compound 10 µM, first compound 0.1 µM) was 48.2% and the viability, T/C (second compound 10 µM, first compound 0.316 µM) was 52.9%. For the same molecule, the viability, T/C (second compound 10 µM, first compound 1 µM) was 50.6%, the viability, T/C (second compound 10 µM, first compound 3.16 µM) was 52.1% and the viability, T/C (second compound 10 µM, first compound 10 µM) was 47.9%.
